Legend:
Type in all cases: in vivo
Nilaparvata lugens = Nilaparvata lugens spray test; settings: Nilaparvata lugens, in Oryza sativa, 96 h
Method: Nilaparvata lugens—Spray Test
(§1) To produce a suitable preparation of active compound, 1 part by weight of active compound is mixed with the stated amount of solvents and is diluted with water, containing an emulsifier concentration of 1000 ppm, to the desired concentration. Further test concentrations are prepared by dilution with emulsifier containing water.
Rice plants (Oryza sativa) are sprayed with a preparation of the active ingredient of the desired concentration and the plants are infested with the brown planthopper (Nilaparvata lugens).
After 4 days mortality in % is determined. 100% means all planthoppers have been killed and 0% means none of the planthoppers have been killed.

Diabrotica balteata = Diabrotica balteata spray test; settings: 160 μg/well, wheat seeds, after 7 days; for pest or weed control at 160 µg/disc, 160 µg/well: Diabrotica balteata, 168 h, read-out: efficacy (seedlings grown)
Method: Diabrotica balteata—Spray Test
as §1, with “solvent,” for “solvents”, “and the concentrate” for “and”
Soaked wheat seeds (Triticum aestivum) are placed in a multiple well plate filled with agar and some water and are incubated for 1 day to germinate (5 seeds per well). The germinated wheat seeds are sprayed with a test solution containing the desired concentration of the active ingredient. Afterwards each unit is infected with 10-20 larvae of the banded cucumber beetle (Diabrotica balteata).
After 7 days efficacy in % is determined. 100% means all the seedlings have grown up like in the untreated, uninfected control; 0% means none of the seedlings have grown.

Ctenocephalides felis [1] = assay: Ctenocephalides felis oral test; settings: Ctenocephalides felis, in Bos taurus, po, 48 h
Method: Ctenocephalides felis—Oral Test
(§2) Solvent: dimethyl sulfoxide
To produce a suitable preparation of active compound, 10 mg of active compound are dissolved in 0.5 ml solvent, and the concentrate is diluted with cattle blood to the desired concentration.
Approximately 20 adult unfed cat fleas (Ctenocephalides felis) are placed in flea chambers. The blood chamber, sealed with parafilm on the bottom, are filled with cattle blood supplied with compound solution and placed on the gauze covered top of the flea chamber, so that the fleas are able to suck the blood. The blood chamber is heated to 37° C. whereas the flea chamber is kept at room temperature.
After 2 days mortality in % is determined. 100% means all the fleas have been killed; 0% means none of the fleas have been killed.

[2] = tested on: Aedes aegypti strain MONHEIM; assay: Aedes aegypti test (AEDSAE surface treatment & contact assay); settings: 24 hours after contact, read-out: efficacy (mortality); for mortality at 20 mg/m2: surface concentration 20 mg/m^2, 30 minutes exposure; for mortality at 4 mg/m2: surface concentration 4 mg/m^2, 30 minutes exposure
Method: Aedes aegypti Test (AEDSAE Surface Treatment & Contact Assay)
(§3) Solvent: Aceton+2000 ppm rapeseed oil methyl ester (RME)
(§4) In order to produce a sufficient, active ingredient containing solution it is necessary to solve the test-compound in the solvent-mix (Acetone at 2 mg/ml/RME 2000 ppm). This solution is pipetted onto a glazed tile and after evaporation of the Acetone, adult mosquitoes of the species Aedes aegypti strain MONHEIM are placed onto the dried surface. The exposure time is 30 minutes.
(§5) Mortality in percent (%) is determined 24 hours after contact to the treated surface. 100% mortality means that all test-insects are dead, whereas 0% means that not a single insect died.

Myzus persicae = Myzus persicae oral test; settings: 120 h
Method: To produce a suitable preparation of active compound, 1 part by weight of active compound is mixed with the stated amount of solvent, and the concentrate is diluted with water to the desired concentration.
50 μl compound solution is filled in microtiter plates and 150 μl IPL41 insect medium (33%+15% sugar) is added to obtain a total volume of 200 μl per well. Afterwards the plates are sealed with parafilm through which a mixed population of the green peach aphid (Myzus persicae) can suck on the compound preparation.
After 5 days mortality in % is determined. 100% means all aphids have been killed and 0% means none of the aphids have been killed.

Boophilus microplus = Boophilus microplus injection test; settings: 20 μg/animal, egg deposition after 7 days; for pest or weed control at 0.02 mg: Rhipicephalus microplus, 168 h, read-out: efficacy (infertile eggs)
Method: Boophilus microplus—Injection Test
as §2
To produce a suitable preparation of active compound, 10 mg of active compound are dissolved in 0.5 ml solvent, and the concentrate is diluted with solvent to the desired concentration.
Five adult engorged female ticks (Boophilus microplus) are injected with 1 μl compound solution into the abdomen. The ticks are transferred into replica plates and incubated in a climate chamber.
After 7 days egg deposition of fertile eggs is monitored. Eggs where fertility is not visible are stored in a climate chamber till hatching after about 42 days. An efficacy of 100% means all eggs are infertile; 0% means all eggs are fertile.

Nezara viridula = Nezara viridula spray test; settings: in Hordeum vulgare, 96 h
Method: Nezara viridula—Spray Test
as §1, with “solvent,” for “solvents”, “and the concentrate” for “and”
Barley plants (Hordeum vulgare) infested with larvae of the southern green stink bug (Nezara viridula) are sprayed with a test solution containing the desired concentration of the active ingredient.
After 4 days mortality in % is determined. 100% means all the stink bugs have been killed; 0% means none of the stink bugs have been killed.

Ctenocephalides felis [3] = assay: Ctenocephalides felis in-vitro contact test adult cat flea; settings: 5 μg/cm^2 (=500 g/ha), after 48 hours; for pest or weed control at 5 µg/cm2, 5 µg/cm2: Ctenocephalides felis, read-out: efficacy (fleas dead or moribund)
Method: Ctenocephalides felis—In-Vitro Contact Test Adult Cat Flea
9 mg compound is solved in 1 ml acetone and diluted with acetone to the desired concentration. 250 μl of the test solution is filled in 25 ml glass test tubes and homogeneously distributed on the inner walls by rotation and tilting on a shaking device (2 h at 30 rpm). With a compound concentration of 900 ppm, an inner surface of 44.7 cm^2 and a homogeneous distribution, a dose of 5 μg/cm^2 is achieved.
After the solvent has evaporated, each test tube is filled with 5-10 adult cat fleas (Ctenocephalides felis), closed with a perforated lid and incubated in a lying position at room temperature and relative humidity. After 48 hours efficacy is determined. The fleas are patted on the ground of the tubes and are incubated on a heating plate at 45-50° C. for at most 5 minutes. Immotile or uncoordinated moving fleas, which are not able to escape the heat by climbing upwards, are marked as dead or moribund.
An efficacy of 100% means all fleas are dead or moribund; 0% means no fleas are dead or moribund.

Spodoptera frugiperda = Spodoptera frugiperda spray test; settings: in Zea mays, 168 h
Method: Spodoptera frugiperda—Spray Test
as §1
Maize (Zea mays) leaf sections are sprayed with a preparation of the active ingredient of the desired concentration. Once dry, the leaf sections are infested with fall armyworm larvae (Spodoptera frugiperda).
After 7 days mortality in % is determined. 100% means all caterpillars have been killed and 0% means none of the caterpillars have been killed.

[4] = tested on: Culex quinquefasciatus strain P00; assay: Culex quinquefasciatus test (CULXFA surface treatment & contact assay); settings: 24 hours after contact, read-out: efficacy (mortality); for mortality at 4 mg/m2: surface concentration 4 mg/m^2, 30 minutes exposure; for mortality at 20 mg/m2: surface concentration 20 mg/m^2, 30 minutes exposure
Method: Culex quinquefasciatus Test (CULXFA Surface Treatment & Contact Assay)
as §3
as §4, with “Culex quinquefasciatus” for “Aedes aegypti”, “P00” for “MONHEIM”
as §5

CC(c1ncnn1-c1ncccn1)N(CC1CC1)C(=O)c1c(F)cccc1F (stereo not shown) [Example I-018]
mortality at 500 g/ha (Nilaparvata lugens): 100%

CC(NC(=O)c1cc(Cl)cc(-n2cccn2)c1)c1ncnn1-c1ncccn1 (stereo not shown) [Example I-048]
pest or weed control at 160 µg/disc, 160 µg/well (Diabrotica balteata): 100% | mortality at 100 ppm (Ctenocephalides felis [1]): 100% | mortality at 20 mg/m2 [2]: 90 to 100% | mortality at 4 ppm (Myzus persicae): 100% | pest or weed control at 0.02 mg (Boophilus microplus): 100%

CC(C)S(=O)(=O)c1cc(Cl)cc(C(=O)N[C@@H](C)c2ncnn2-c2ncccn2)c1 [Example I-051, 3-chloro-5-(isopropylsulfonyl)-N-{(1S)-1-[1-(pyrimidin-2-yl)-1H-1,2,4-triazol-5-yl]ethyl}benzamide]
pest or weed control at 160 µg/disc, 160 µg/well (Diabrotica balteata): 100% | mortality at 100 ppm (Ctenocephalides felis [1]): 100% | mortality at 500 g/ha (Nezara viridula): 100% | pest or weed control at 5 µg/cm2, 5 µg/cm2 (Ctenocephalides felis [3]): 80% | mortality at 4 ppm (Myzus persicae): 100% | pest or weed control at 0.02 mg (Boophilus microplus): 100% | mortality at 500 g/ha (Spodoptera frugiperda): 100%

C[C@H](NC(=O)c1cc(C(F)(F)F)nn1-c1ccc(F)cc1)c1ncnn1-c1ncccn1 [Example I-052, 1-(4-fluorophenyl)-N-{(1S)-1-[1-(pyrimidin-2-yl)-1H-1,2,4-triazol-5-yl]ethyl}-3-(trifluoromethyl)-1H-pyrazole-5-carboxamide]
mortality at 100 ppm (Ctenocephalides felis [1]): 100% | pest or weed control at 0.02 mg (Boophilus microplus): 100%

COC[C@H](NC(=O)c1cc(Cl)cc(S(C)(=O)=O)c1)c1ncnn1-c1ncccn1 [Example I-059]
mortality at 100 ppm (Ctenocephalides felis [1]): 100% | mortality at 500 g/ha (Nilaparvata lugens): 100% | pest or weed control at 5 µg/cm2, 5 µg/cm2 (Ctenocephalides felis [3]): 80%

C[C@H](NC(=O)c1cc(Cl)cc(S(C)(=O)=O)c1)c1ncnn1-c1ccc(OC(F)F)cn1 [Example I-063]
pest or weed control at 160 µg/disc, 160 µg/well (Diabrotica balteata): 100% | mortality at 500 g/ha (Nezara viridula): 100% | mortality at 4 mg/m2 [2]: 80 to 100% | mortality at 20 mg/m2 [2]: 90 to 100% | mortality at 4 ppm (Myzus persicae): 100% | mortality at 500 g/ha (Spodoptera frugiperda): 100% | mortality at 4 mg/m2 [4]: 80 to 100% | mortality at 20 mg/m2 [4]: 80 to 100%

C[C@H](NC(=O)c1cc(Cl)cc(S(C)(=O)=O)c1)c1ncnn1-c1ccc(SC(F)(F)F)cn1 [Example I-064]
pest or weed control at 160 µg/disc, 160 µg/well (Diabrotica balteata): 100% | mortality at 500 g/ha (Spodoptera frugiperda): 100%

CC(NC(=O)c1cc(Cl)cc(S(=O)(=O)C(F)(F)F)c1)c1ncnn1-c1ncc(Cl)cn1 (stereo not shown) [Example I-069]
efficacy (seedlings grown) (Diabrotica balteata): 100% | efficacy (fleas dead or moribund) (Ctenocephalides felis [3]): 100% | efficacy (infertile eggs) (Boophilus microplus): 100%

CC(NC(=O)c1cc(Cl)cc(S(=O)(=O)C(F)(F)F)c1)c1ncnn1-c1ccc(C(F)(F)F)cn1 (stereo not shown) [Example I-072]
efficacy (seedlings grown) (Diabrotica balteata): 100% | efficacy (infertile eggs) (Boophilus microplus): 100%

CC(NC(=O)c1cc(Cl)cc(S(=O)(=O)C(F)(F)F)c1)c1ncnn1-c1ccc(Cl)cn1 (stereo not shown) [Example I-073]
efficacy (seedlings grown) (Diabrotica balteata): 100% | efficacy (fleas dead or moribund) (Ctenocephalides felis [3]): 90% | efficacy (infertile eggs) (Boophilus microplus): 100%

CC(NC(=O)c1cc(Cl)cc(S(=O)(=O)C(F)(F)F)c1)c1ncnn1-c1cc(C#N)ccn1 (stereo not shown) [Example I-075]
efficacy (seedlings grown) (Diabrotica balteata): 100% | efficacy (fleas dead or moribund) (Ctenocephalides felis [3]): 90% | efficacy (infertile eggs) (Boophilus microplus): 100%

C[C@@H](NC(=O)c1cc(Cl)cc(S(=O)(=O)C(F)(F)F)c1)c1ncnn1-c1ccnc(Cl)c1 [Example I-076]
mortality at 100 ppm (Ctenocephalides felis [1]): 100% | pest or weed control at 0.02 mg (Boophilus microplus): 100%

C[C@@H](NC(=O)c1cc(Cl)cc(S(=O)(=O)C(F)(F)F)c1)c1ncnn1-c1nccs1 [Example I-077]
pest or weed control at 160 µg/disc, 160 µg/well (Diabrotica balteata): 100% | mortality at 100 ppm (Ctenocephalides felis [1]): 90% | mortality at 20 mg/m2 [2]: 90 to 100% | pest or weed control at 0.02 mg (Boophilus microplus): 100% | mortality at 500 g/ha (Spodoptera frugiperda): 100%

CC(NC(=O)c1cc(Cl)cc(S(=O)(=O)C(C)(C)C)c1)c1ncnn1-c1ncccn1 (stereo not shown) [Example I-080]
efficacy (infertile eggs) (Boophilus microplus): 80%

C[C@@H](NC(=O)c1cc(Cl)cc(S(C)(=O)=O)c1)c1ncnn1-c1ccc(C(F)(F)F)cn1 [Example I-089]
pest or weed control at 160 µg/disc, 160 µg/well (Diabrotica balteata): 100% | mortality at 100 ppm (Ctenocephalides felis [1]): 100% | mortality at 500 g/ha (Nezara viridula): 100% | mortality at 4 mg/m2 [2]: 80 to 100% | mortality at 20 mg/m2 [2]: 90 to 100% | pest or weed control at 5 µg/cm2, 5 µg/cm2 (Ctenocephalides felis [3]): 100% | mortality at 500 g/ha (Spodoptera frugiperda): 100% | mortality at 4 mg/m2 [4]: 80 to 100% | mortality at 20 mg/m2 [4]: 80 to 100%

CC(NC(=O)c1cc(Cl)cc(-n2ccc(C(F)(F)F)n2)c1)c1ncnn1-c1ncccn1 (stereo not shown) [Example I-094]
pest or weed control at 160 µg/disc, 160 µg/well (Diabrotica balteata): 100% | mortality at 500 g/ha (Spodoptera frugiperda): 83%

C[C@@H](NC(=O)c1cc(Cl)cc(S(C)(=O)=O)c1)c1nc(C(F)(F)F)nn1-c1ccc(C#N)cn1 [Example I-110]
mortality at 500 g/ha (Nezara viridula): 100% | mortality at 500 g/ha (Spodoptera frugiperda): 100%

C[C@@H](NC(=O)c1cncc(-c2ccc(F)cc2)c1)c1ncnn1-c1ncccn1 [Example I-111]
mortality at 500 g/ha (Nilaparvata lugens): 100%

C[C@@H](NC(=O)c1cc(F)cc(C2CC2)c1)c1ncnn1-c1ccc(C#N)cn1 [Example I-113]
pest or weed control at 160 µg/disc, 160 µg/well (Diabrotica balteata): 100% | mortality at 500 g/ha (Nezara viridula): 90% | mortality at 500 g/ha (Spodoptera frugiperda): 100%

C[C@H](NC(=S)c1cc(F)cc(C2CC2)c1)c1ncnn1-c1ccc(C#N)cn1 [Example I-120, N-{(1S)-1-[1-(5-cyanopyridin-2-yl)-1H-1,2,4-triazol-5-yl]ethyl}-3-cyclopropyl-5-fluorobenzenecarbothioamide]
pest or weed control at 160 µg/disc, 160 µg/well (Diabrotica balteata): 100% | mortality at 500 g/ha (Nilaparvata lugens): 100% | mortality at 500 g/ha (Nezara viridula): 100% | mortality at 500 g/ha (Spodoptera frugiperda): 100%

C[C@@H](NC(=O)c1cc(-c2ccc(F)cc2)cc(C(F)(F)F)c1)c1ncnn1-c1ccc(C#N)cn1 [Example I-123]
pest or weed control at 160 µg/disc, 160 µg/well (Diabrotica balteata): 100% | mortality at 500 g/ha (Spodoptera frugiperda): 100%
